Laboratory results from US20250340848A1, “METHODS FOR CHEMICAL REPROGRAMMING AND PLURIPOTENT STEM CELLS” (Peking University, priority 2022, published 2025).

Legend:
Assay type in all cases: cell-based, human
hADSCs [1] = assay: Example 7 chemical reprogramming of hADSCs, OCT4+ hCiPSC colonies; conditions: for improving reprogramming efficiency: added in stage 1
Description: The stage 1 induction medium contained Knockout DMEM (Gibco) supplemented with 2% B27 supplement (Gibco), 1% Knockout Serum Replacement (KSR; Gibco), 1% GlutaMAX (Gibco), 1% nonessential amino acids (NEAA; Gibco), 1% penicillin-streptomycin, 50 μg ml-1 Vc2p, 5 mM LiCl, 1 mM nicotinamide, 40 ng ml^−1 BMP4 and the small molecules CHIR-99021 (5 μM), 616452 (10 μM), TTNPB (2 μM), SAG (0.5 μM), EPZ-5676 (2 μM), DZNep (0.05 μM), ruxolitinib (1 μM), VTP50469 (0.5 μM), AKT kinase inhibitor (1 μM), JNK-IN-8 (0.2 μM), SETD2-IN-1 (0.2 μM), AM095 free acid (0.5 μM), WM-8014 (1 μM) and A-485 (0.5 μM).
Stage 2 induction medium contained Knockout DMEM supplemented with 2% B27 supplement, 1% GlutaMAX, 1% NEAA, 1% penicillin-streptomycin, 50 μg ml^−1 Vc2p, 200 ng ml^−1 bFGF and the small molecules CHIR-99021 (5 μM), 616452 (10 μM), TTNPB (2 μM), SAG (0.5 μM), JNK-IN-8 (0.5 μM), EPZ-5676 (2 μM), DZNep (0.2 μM), ruxolitinib (1 μM), BIRB 796 (2 μM), SGC-CBP30 (2 μM), VTP50469 (0.5 μM), 5-Iodotubercidin (0.5 μM), AKT kinase inhibitor (0.2 μM), CX-4945 (1 μM), RA (5 μM) and GSK-3685032 (0.02 μM).
Stage 3 induction medium contained Knockout DMEM supplemented with 2% B27 supplement, 1% GlutaMAX, 1% NEAA, 1% penicillin-streptomycin, 5% KSR, 50 μg ml^−1 Vc2p, 20 ng ml^−1 recombinant human heregulinβ-1 (HRG) and the small molecules CHIR-99021 (1 μM), Y-27632 (10 μM), PD0325901 (1 μM) and SB-590885 (0.5 μM). Knockout DMEM containing supplements and the small molecules mentioned above served as the basal medium for stage 3. For the first 2-3 days of stage 3 induction, valproic acid sodium salt (VPA; 200 μM), tranylcypromine (10 μM), DZNep (0.2 μM), EPZ-5676 (2 μM) and PY-60 (10 μM) were added to the basal medium. For the next 2-3 days, VPA (200 μM) and PY-60 (2 μM) were added to the basal medium. Information on the small molecules, cytokines and other reagents is available in Supplementary Table 4.
Hypoxia with 5% O2 was used for stage 1 induction. After stage 1 induction, the culture was changed to 21% O2.
(1) hADSCs and hASFs were seeded in high-glucose DMEM supplemented with 15% FBS at a density of 1.2-1.4×10^4 cells per well in 12-well plates or 0.6-0.7×10^4 cells per well in 24-well plates. The medium was changed to stage 1 induction medium the next day.
(2) For stage 1 induction, single-layer epithelium-like cells emerged on day 4. When the epithelium-like cells reached ˜100% confluence (usually after 6-8 days of stage 1 induction for hADSCs and 8-10 days for hASFs), the medium was changed to stage 2 induction medium. For the induction of hADSCs in 24-well plates, 1 ml of stage 1 medium was added to each well (2 ml per well for 12-well plates), and there was no need to change the medium during stage 1. For the induction of hASFs, stage 1 medium was replaced with fresh medium on day 6. […]

hADSCs [2] = assay: Stage 1 conversion of hADSCs to epithelial-like cells, morphology (FIG. 3); conditions: added in stage 1, small-molecule library screen
Description: (§1) In one experiment, when converting hCiPSCs from somatic cell (e.g., hADSCs), hypoxia with 5% O2 was used in stage 1 conversion. After stage 1 conversion, cells were incubated with 21% O2. The induction medium was changed every 3-4 days. hADSCs were seeded at a density of 1×10^4 cells per well of a 12-well plate in 15% FBS-DMEM medium and would be changed into stage 1 conversion medium the next day. For stage 1 conversion, single layer epithelial-like cells induced from hADSCs would emerge at day 4-6 and approach 100% confluence at day 8-12. Then the medium was changed into stage 2 conversion medium. For stage 2 conversion, multi-layered cell colonies appeared after 8-12 days of treatment of the cells with the conversion medium, and these cell colonies would continually grow increasingly large. The medium was changed into stage 3 conversion medium after 16 days of treatment with the stage 2 conversion medium. […]
In stage 1, the conversion medium was changed every 3-4 days. hADSCs were seeded at a density of 1×10^4 cells per well of a 12-well plate in 15% FBS-DMEM medium and would be changed into stage I induction medium the next day. […] Conversion into epithelial-like cells can be measured by upregulation of and epithelial cell-related genes. […]

hADSCs [3] = assay: Three-stage conversion of hADSCs into hCiPSCs (methods of EXAMPLE 1), numbers of hCiPSC colonies
Description: FIG. 1 illustrates a schematic of an exemplary method for converting human somatic cells into pluripotent stem cells. The method has 3 stages. During any of the 3 stages, any cell can proliferate and give rise to progeny cells. In stage 1, a first population of cells comprising somatic cells are contacted with a first composition for about 4-12 days. The first population of cells can comprise somatic cells (e.g., fibroblasts or primary human adult adipose derived mesenchymal stromal cells (hADSCs)). During and/or subsequent to contacting the first composition, at least a subset of the cells of the first population of cells or the progenies thereof are converted into a second population of cells. The second population of cells can comprise epithelial-like cells. In stage 2, the second population of cells or the progenies thereof are then contacted with a second composition for about 4-16 days. During and/or subsequent to contacting the second composition, at least a subset of the cells of the second population of cells or the progenies thereof are converted into a third population of cells. The third population of cells can comprise intermediate plastic state cells. In stage 3, the third population of cells or the progenies thereof are contacted with a third composition for about 6-12 days. During and/or subsequent to contacting the third composition, at least a subset of the cells of the third population of cells or the progenies thereof are converted into a fourth population of cells.
FIG. 2 illustrates a schematic of an exemplary method for converting human fibroblasts into pluripotent stem cells. The method can comprise 3 stages. During any of the 3 stages, any cell can proliferate and give rise to progeny cells. In stage 1, a first population of cells comprising fibroblasts is contacted with a first composition for about 8-10 days. During and/or subsequent to contacting the first composition, at least a subset of the cells of the first population of cells or the progenies thereof are converted into a second population of cells. The second population of cells can comprise epithelial-like cells. The epithelial-like cells express an increased amount of LIN28A, relative to the first population of cells or their progenies. In stage 2, the second population of cells or the progenies thereof are then contacted with a second composition for about 12-16 days. During and/or subsequent to contacting the second composition, at least a subset of the cells of the second population of cells or the progenies thereof are converted into a third population of cells. The third population of cells can comprise intermediate plastic state cells. The intermediate plastic state cells express both SALL4 and LIN28A. In stage 3, the third population of cells or the progenies thereof are contacted with a third composition for about 8-10 days. During and/or subsequent to contacting the third composition, at least a subset of the cells of the third population of cells or the progenies thereof are converted into a fourth population of cells. […] The second conversion medium can then be removed from the cells. […] The third stage 3 medium may allow the pluripotent stem cells or the progenies thereof to proliferate.
as §1, with “medium.” for “medium. For stage 2 conversion, multi-layered cell colonies appeared after 8-12 days of treatment of the cells with the conversion medium, and these cell colonies would continually grow increasingly large. The medium was changed into stage 3 conversion medium after 16 days of treatment with the stage 2 conversion medium.”

## Cc1cc(-c2ccccc2)cc(C(=O)NNS(=O)(=O)c2ccccc2)c1F [WM8014]
hADSCs [1]; 1 μM screening batch, FIG. 40
  screening of chemical libraries targeting histone modifications during chemical reprogramming stage 1: top candidate
hADSCs [1]
  improving reprogramming efficiency: most effective in improving reprogramming efficiency

## CC(C)N(C(=O)c1cc(F)ccc1Oc1cncnc1N1CC2(CCN(CC3CCC(NS(C)(=O)=O)CC3)CC2)C1)C(C)C (centres unmarked) [VTP50469]
hADSCs [2]
  emergence of epithelial-like colonies: further promoted the emergence epithelial-like colonies
hADSCs [3]; added to the stage 2 conversion medium, relative to medium without it, FIGS. 7A-7B
  increase of the numbers of converted hCiPSCs: about 7 fold
hADSCs [3]; factor removed from the stage 2 conversion medium, FIG. 17
  numbers of converted hCiPSCs: reduced the numbers of converted hCiPSCs
hADSCs [3]; various combinations supplemented to stage 1 conversion medium comprising CHIR99021, 616452, TTNPB and AKT Kinase Inhibitor, FIG. 5
  numbers of converted hCiPSCs: significantly increase the numbers of converted hCiPSCs

## CCn1c(-c2nonc2N)nc2c(C#CCO)ncc(OCCCN)c21 [AKT Kinase Inhibitor, 3-[2-(4-amino-1,2,5-oxadiazol-3-yl)-7-(3-aminopropoxy)-1-ethylimidazo[4,5-c]pyridin-4-yl]prop-2-yn-1-ol]
hADSCs [2]
  emergence of epithelial-like colonies: further promoted the emergence epithelial-like colonies
hADSCs [3]; AKTi and CX4945 included in the stage 2 conversion medium (Base), FIG. 18
  reprogramming efficiency: significantly improved the reprogramming efficiency
hADSCs [3]; factor removed from the stage 1 conversion medium, FIG. 4
  numbers of converted hCiPSCs: minimal numbers of converted hCiPSCs

## CNC(=O)Nc1ccc2c(c1)CC[C@@]21OC(=O)N(CC(=O)N(Cc2ccc(F)cc2)[C@@H](C)C(F)(F)F)C1=O [A485]
hADSCs [1]; 0.5 μM screening batch, FIG. 39
  screening of chemical libraries targeting histone modifications during chemical reprogramming stage 1: top candidate
hADSCs [1]
  improving reprogramming efficiency: most effective in improving reprogramming efficiency
